According to publication PMC12056667 (Chemical Science, 2025):
Read-outs that look alike come from different tables or passages of the source.

How the values were obtained:
[1] = biological target: T1, Tet(X4) (Escherichia coli, UniProt A0A3T0V9Y5); assay: biochemical
Procedure: We then tested the binding of reported type 1 TDase inhibitors to Tet(X4) (Fig. 3f, ESI Fig. S17 ^†).[33,38,39] […] We also developed a complementary endpoint activity assay where the turnover of tigecycline by Tet(X4) in a 96-well plate was quenched by addition of 1%v/v formic acid and analysed chromatographically. The peak integrals of tigecycline and its hydroxylated degradation product at 254 nm following UPLC analysis were measured to determine turnover (Fig. 5a).
[…] A 3-fold, 10-point dilution series of the substrates and inhibitors was made in DMSO with a top concentration of 10 mM, unless otherwise stated, and transferred to the enzyme solution using a CyBi-Well liquid-handling robot (CyBio), 1 μL per well. On each plate, a column of no enzyme negative controls and no inhibitor (DMSO only) positive controls were included. The plate was incubated at 30 °C for 15 min. A solution containing 100 mM TAPS (pH 8.5), 40 μM tigecycline and 200 μM NADPH was then dispensed, with 49 μL per well. The plate was incubated at 30 °C for 20 min at 600 rpm. 10 μL of 10%v/v formic acid solution was then dispensed into all wells. Samples were analysed using an ACQUITY H-Class PLUS UPLC instrument (Waters) equipped with a pre-equilibrated ACQUITY BEH C18 column ([…], […], Waters) using a gradient of 1–50%v/v acetonitrile with 0.1%v/v formic acid in water with 0.1%v/v formic acid over 1.83 minutes at a flow rate of 0.5 mL min^−1. Instrument control and data processing were performed using MassLynx V4.1 software. The peaks representing tigecycline and 11a-hydroxy-tigecycline were integrated, used to calculate % conversion and then normalised between positive and negative controls. The normalised % response was plotted as a function of log10[Inhibitor], and the IC50 determined as described above.

[2] = biological target: T1, Tet(X4); assay: FP competitive displacement of probe 6; type: binding; settings: for IC50: IC50app, FP assay, 25 nM 6, 40 nM Tet(X4), 5 mM MgCl2, 1 μM FAD, 100 mM Tris pH 7.0, 0.01% Triton X-100; for displacement of probe 6 / competitive binding (in words): up to a maximum concentration of 100 μM
Summary of the method: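 FP displacement of probe 6 (added as 50 nM solution) from Tet(X4) (2× mix: 80 nM enzyme, 2 μM FAD, 10 mM MgCl2), 30 min at ambient temperature. Dose-response used 3-fold, 10-point DMSO series (top 5 or 0.5 mM stock). IC50^app came from a Hill fit of control-normalised response. Library screening used 10 μM compound, 0.1% DMSO, […].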

[3] = biological target: T1, Tet(X4); assay: Absorbance activity assay (tigecycline turnover, A400); type: biochemical; settings: for inhibition in the absorbance assay (in words): AZT up to 1 mM
Excerpt: We then tested the binding of reported type 1 TDase inhibitors to Tet(X4) (Fig. 3f, ESI Fig. S17 ^†).[33,38,39] […] These compounds gave similar apparent IC50^app values, in accord with trends in IC50 measurements performed by Markley et al.[33] […] We also developed a complementary endpoint activity assay where the turnover of tigecycline by Tet(X4) in a 96-well plate was quenched by addition of 1%v/v formic acid and analysed chromatographically. The peak integrals of tigecycline and its hydroxylated degradation product at 254 nm following UPLC analysis were measured to determine turnover (Fig. 5a). As this method separates components by chromatography, it enables IC50 measurements independent of potential interference from UV-active inhibitors (Fig. 5b). […] The apparent synergy of AZT with tetracyclines against whole cells expressing Tet(X4)[40] is therefore interesting and may derive from the proposed ability of AZT to interfere with DNA synthesis in bacteria,[40,53] or other unidentified mechanisms. […] Note, however, that plumbagin and 2-MNQ are naphthoquinones, which are well-characterised redox-active pan-assay interference (PAINS) moieties.[54]
233 Absorbance Activity Assays
234 A solution containing 100 mM TAPS (pH 8.5), 2 µM FAD, 10 mM MgCl2 and 100 nM Tet(X4) was
235 dispensed into a 384 well µClear plate (Greiner Bio-One), 25 µL per well, using a microplate reagent
236 dispenser. A 3-fold, 10-point dilution series of the substrates and inhibitors was made in DMSO with
237 the highest concentration of 50 mM, unless otherwise stated, and transferred to the enzyme solution in
238 technical quadruplicate using a CyBi-Well (CyBio) liquid-handling robot (1 µL per well). On each plate,
239 a column of no enzyme negative controls and no inhibitor (DMSO only) positive controls were
240 included. The plate was briefly centrifuged (1000 rpm), then incubated (ambient temperature,15 min).
241 A solution containing 100 mM TAPS (pH 8.5), 50 µM tigecycline and 500 µM NADPH was then
242 dispensed, with 25 µL per well. The plate was briefly centrifuged (1000 rpm), then transferred to a
243 CLARIOstar Plus Microplate reader. The absorbance was monitored at wavelength […] over the
244 course of 2 hours (23 flashes / cycle, 180 s cycle time, 41 data points, 25 ° C). The initial rate was
245 calculated by measuring the rate of change of A400 during the initial linear regime. Initial rates were
246 normalised between positive and negative controls. The normalised % response was plotted as a
(§1) 247 function of log10([Inhibitor]) in molar units, and the IC50 was determined as above. […]

[4] = biological target: T2, Tet(50) (Unknown prokaryotic organism, UniProt A0A059WYP6); assay: Fluorescence polarisation binding assay of probes with purified TDase; settings: for Kd: 25 nM probe, 5 mM MgCl2, 1 μM FAD, 100 mM Tris pH 7.0, 0.01% Triton X-100; for binding to Tet(50) (in words): up to a concentration of 5 μM of enzyme
T2 construct: made in house; host or cells: E. coli BL21(DE3)
Procedure: (§2) NADPH was not included to prevent turnover of the probe to the hydroxylated product, which would likely have a lower binding affinity than the initial probes. Screens were conducted in pH 7.0 buffer with addition of 0.01% Triton-X100 detergent in non-binding plates to minimise adsorption to the plate wells.[45]
(§3) Aliquots of TDases were thawed and serially diluted with the assay buffer (100 mM Tris, pH 7.0 with 0.01% Triton X-100) in a V-bottom 96-well plate (Greiner Bio-One). 12.5 μL of each concentration of enzyme was transferred in quadruplicate to a 384-well black, non-binding microtiter plate (Greiner Bio-One). Aliquots of 2 mM stock of fluorescent probes 5 and 6 in DMSO were thawed and diluted to 50 nM in the assay buffer with 2 μM FAD and 10 mM MgCl2. 12.5 μL of this solution was added to wells containing enzyme. A negative control of 12.5 μL of the probe solution with 12.5 μL of the assay buffer was included on each plate. The plate was briefly centrifuged (1000 rpm), then incubated at ambient temperature for 30 min before measuring the FP response using a PHERAstar FS microplate reader (BMG Labtech) equipped with an FP optic module (excitation = 540 ± 20 nm, Emission = 590 ± 20 nm, 200 flashes per well). ΔmP values were calculated by subtracting the average mP of the negative controls from the mP measured for each well. To calculate Kd values, the derived ΔmP values were plotted as a function of enzyme concentration and a one-site specific binding model was applied (GraphPad Prism 9.4.1).

[5] = biological target: Tet(X7); assay: as above; settings: 25 nM probe, 5 mM MgCl2, 1 μM FAD, 100 mM Tris pH 7.0, 0.01% Triton X-100
Procedure: as §2, §3

[6] = biological target: Tet(X5); assay: as above; settings: 25 nM probe, 5 mM MgCl2, 1 μM FAD, 100 mM Tris pH 7.0, 0.01% Triton X-100
Procedure: as §2, §3

[7] = biological target: T3, Tet(X2) (Bacteroides thetaiotaomicron, UniProt Q93L51); assay: as above
T3 construct: For Tet(X2), the full-length protein was prepared rather that the Δ1–10 mutant used previously for crystallographic studies; made in house; host or cells: E. coli BL21(DE3)
Procedure: as §2, §3

[8] = biological target: T1, Tet(X4); assay: as above
Procedure: as §2
as §3, with “Aliquots of 2 mM stock of fluorescent probes 5 and 6 in DMSO were thawed and diluted to 50 nM in the assay buffer with 2 μM FAD and 10 mM MgCl2.” left out

[9] = biological target: T1, Tet(X4); assay: Turnover of probe 6 (absorbance and LC-MS); type: biochemical; settings: with NADPH; decrease of A400 and +16 Da species by LC-MS
Procedure: To investigate whether fluorescent probe 6 binds to the active site of the Tet(X) enzymes, we carried out docking of the probe with Tet(X4)[8] (ESI Fig. S10 ^†). […] We thus considered that probe 6 may be hydroxylated by Tet(X4) when NADPH was added to initiate turnover. We monitored turnover of probe 6 using an absorbance-readout assay with Tet(X4) adapted from previous studies.[33] A decrease in absorbance at 400 nm was observed, consistent with hydroxylation, but was not seen in a control reaction lacking Tet(X4) (ESI Fig. S11 ^†). This observation was corroborated by LC-MS analysis of the reaction (ESI Fig. S12 ^†). Appearance of an apparently mono-hydroxylated species with mass 989.348 Da (calculated mass: 989.3504 Da) was observed, +16 Da relative to the starting material (measured mass: 973.355 Da; calculated mass: 973.3555 Da).
233 Absorbance Activity Assays […]
243 CLARIOstar Plus Microplate reader. The absorbance was monitored at wavelength […] over the […]
245 calculated by measuring the rate of change of A400 during the initial linear regime. […]
as §1
252 reaction was monitored by recording the absorbance spectra between 200-800 nm at one-minute […]
261 Quenched samples were stored at -20 °C prior to analysis. Samples were analysed using a Xevo G2-XS […]

| Compound | inhibition in the UPLC assay (in words) [1] | IC50 ([1]; IC50, UPLC assay) | IC50 [2] | displacement of probe 6 / competitive binding (in words) [2] | IC50 [3] | inhibition in the absorbance assay (in words) [3] | IC50 ([1]; 20 μM tigecycline, 50 nM Tet(X4), 100 μM NADPH, 5 mM MgCl2, 1 μM FAD, 100 mM TAPS pH 8.5, read-out: IC50, UPLC assay) | inhibition in the UPLC assay (in words) ([1]; AZT up to 100 μM) | Kd [4] | binding to Tet(50) (in words) [4] | Kd [5] | Kd [6] | Kd [7] | Kd ([8]; 25 nM probe, 5 mM MgCl2, 1 μM FAD, 100 mM Tris pH 7.0, 0.01% Triton X-100, read-out: Kd) | Kd ([8]; Kd, 25 nM probe, 5 mM MgCl2, 1 μM FAD, 100 mM Tris pH 7.0, 0.01% Triton X-100) | Kd ([8]; apparent Kd, with 5 mM MgCl2) | Kd ([8]; apparent Kd, without MgCl2) | turnover by Tet(X4) (in words) [9] |
| --- | --- | --- | --- | --- | --- | --- | --- | --- | --- | --- | --- | --- | --- | --- | --- | --- | --- | --- |
| Cc1cn([C@H]2C[C@H](N=[N+]=[N-])[C@@H](CO)O2)c(=O)[nH]c1=O [Azidothymidine] | No inhibition | > 100 µM | > 100 µM | minimal competitive binding | > 1000 µM | No inhibition | – | – | – | – | – | – | – | – | – | – | – | – |
| CC1=CC(=O)c2c(O)cccc2C1=O [Plumbagin] | – | – | > 100 µM | minimal competitive binding | 49.1 ± 4.9 µM | moderate | 37.2 ± 8.2 µM | moderate | – | – | – | – | – | – | – | – | – | – |
| CN(C)c1ccc2c(-c3ccc(C(=O)NCC(=O)Nc4cc(N(C)C)c5c(c4O)C(=O)C4=C(O)[C@]6(O)C(=O)C(C(N)=O)=C(O)[C@H](N(C)C)[C@@H]6C[C@@H]4C5)cc3C(=O)[O-])c3ccc(=[N+](C)C)cc-3oc2c1 [Probe 5] | – | – | – | – | – | – | – | – | > 5 µM | no detectable binding | 0.126 ± 0.015 µM | 0.0299 ± 0.0027 µM | 0.0669 ± 0.0103 µM | 0.0465 ± 0.0041 µM | – | – | – | – |
| CN(C)c1ccc2c(-c3ccc(NC(=S)NCC(=O)Nc4cc(N(C)C)c5c(c4O)C(=O)C4=C(O)[C@]6(O)C(=O)C(C(N)=O)=C(O)C(N(C)C)[C@@H]6C[C@@H]4C5)cc3C(=O)[O-])c3ccc(=[N+](C)C)cc-3oc2c1 (stereo partly drawn) [Probe 6, TRITC-glycyl-minocycline] | – | – | – | – | – | – | – | – | > 5 µM | no detectable binding | 0.0405 ± 0.0051 µM | 0.0106 ± 0.0013 µM | 0.0224 ± 0.004 µM | – | 0.0173 ± 0.0019 µM | 0.0181 ± 0.0024 µM | 0.188 ± 0.033 µM | can be turned over |
